The assay deals with ROCK2 (human) (UniProt O75116). Description: Inhibition of ROCK2 Kinase Activity.

The structures appear in SMILES notation.

Usually IC50 stands for the concentration needed to halve the response being measured. Higher therefore signals weaker potency in that assay.

ROCK2 (human), sequence (O75116 whole entry, looked up): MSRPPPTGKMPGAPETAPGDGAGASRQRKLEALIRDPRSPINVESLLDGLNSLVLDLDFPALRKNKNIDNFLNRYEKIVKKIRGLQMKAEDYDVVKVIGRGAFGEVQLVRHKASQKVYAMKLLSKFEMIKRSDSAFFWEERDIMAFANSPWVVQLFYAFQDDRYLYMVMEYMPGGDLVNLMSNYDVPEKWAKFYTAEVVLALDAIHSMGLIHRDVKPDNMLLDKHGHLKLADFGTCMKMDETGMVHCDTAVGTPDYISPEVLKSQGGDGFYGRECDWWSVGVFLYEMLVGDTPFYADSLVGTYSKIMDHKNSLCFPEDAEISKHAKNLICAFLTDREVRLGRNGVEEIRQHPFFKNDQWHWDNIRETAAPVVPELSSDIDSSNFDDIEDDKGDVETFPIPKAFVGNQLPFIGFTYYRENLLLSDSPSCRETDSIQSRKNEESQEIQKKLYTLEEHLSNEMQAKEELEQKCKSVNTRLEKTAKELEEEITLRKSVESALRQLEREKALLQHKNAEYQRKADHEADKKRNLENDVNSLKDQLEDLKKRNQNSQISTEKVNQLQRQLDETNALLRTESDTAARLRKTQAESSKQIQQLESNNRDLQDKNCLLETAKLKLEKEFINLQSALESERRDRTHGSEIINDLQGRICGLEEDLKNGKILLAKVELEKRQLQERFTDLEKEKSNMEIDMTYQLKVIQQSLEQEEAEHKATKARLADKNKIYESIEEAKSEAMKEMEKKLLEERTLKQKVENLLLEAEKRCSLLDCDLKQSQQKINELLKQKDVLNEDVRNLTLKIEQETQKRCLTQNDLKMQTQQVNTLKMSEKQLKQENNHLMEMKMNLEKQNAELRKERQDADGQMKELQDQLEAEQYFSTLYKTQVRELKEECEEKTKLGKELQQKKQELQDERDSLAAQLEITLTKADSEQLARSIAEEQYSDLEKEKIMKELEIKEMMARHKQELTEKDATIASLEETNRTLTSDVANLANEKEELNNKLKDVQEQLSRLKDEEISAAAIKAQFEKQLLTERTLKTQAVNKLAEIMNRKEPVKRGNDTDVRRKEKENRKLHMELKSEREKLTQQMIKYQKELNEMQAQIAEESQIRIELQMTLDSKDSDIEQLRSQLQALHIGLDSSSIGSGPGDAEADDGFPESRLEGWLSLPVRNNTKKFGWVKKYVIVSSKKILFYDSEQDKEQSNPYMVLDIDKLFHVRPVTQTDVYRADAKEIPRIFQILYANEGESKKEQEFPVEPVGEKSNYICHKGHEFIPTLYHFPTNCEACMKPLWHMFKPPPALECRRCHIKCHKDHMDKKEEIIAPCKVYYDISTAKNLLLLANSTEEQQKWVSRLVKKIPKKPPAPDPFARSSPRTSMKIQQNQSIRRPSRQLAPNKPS

The molecule `NC(CNC(=O)Nc1ccc(Cl)cc1)c1ccc(C(=O)Nc2ccncc2)cc1` (centres undefined) gave a half-inhibitory concentration (IC50) of 50 to 500 nM. `CC(C)(C)c1ccc(NC(=O)NCC(N)c2ccc(C(=O)Nc3ccncc3)cc2)cc1` (centres undefined): the IC50 was in the range of 500 to 5000 nM. In turn, `NC(CNC(=O)Cc1ccccn1)c1ccc(C(=O)Nc2ccncc2)cc1` (centres undefined) yielded an IC50 of 500 to 5000 nM.

Consider `CS(=O)(=O)c1cccc(C(=O)NCC(N)c2ccc(C(=O)Nc3ccncc3)cc2)c1` (centres undefined), for which the IC50 was in the range of 500 to 5000 nM.

Take `CC(NC(=O)CC(N)c1ccc(C(=O)Nc2ccncc2)cc1)c1ccccc1` (centres undefined): the IC50 is 50 to 500 nM. The result for `NC(CNC(=O)C1(c2ccc(Cl)c(Cl)c2)CC1)c1ccc(C(=O)Nc2ccncc2)cc1` (centres undefined) reads 50 to 500 nM; that for `NC(CNC(=O)c1ccsc1)c1ccc(C(=O)Nc2ccncc2)cc1` (centres undefined), 50 to 500 nM. The figure for `CN(CC(N)c1ccc(C(=O)Nc2ccncc2)cc1)C(=O)Cc1cccc(Cl)c1` (centres undefined) is 500 to 5000 nM; for `NC(CC(=O)NCc1cccc(Cl)c1)c1ccc(C(=O)Nc2ccncc2)cc1` (centres undefined) it is 50 to 500 nM.

Turning to `NC(c1ccc(C(=O)Nc2ccncc2)cc1)C1CCCN1C(=O)C1CCOc2ccccc21` (centres undefined), the IC50 fell in the range of 500 to 5000 nM. The result for `NC(CC(=O)NCCc1ccc(Cl)cc1)c1ccc(C(=O)Nc2ccncc2)cc1` (centres undefined) reads 50 to 500 nM. The molecule `CN(CC(N)c1ccc(C(=O)Nc2ccncc2)cc1)C(=O)Cc1ccc(Cl)c(Cl)c1` (centres undefined) registered an IC50 of 500 to 5000 nM. The figure for `CN(CC(N)c1ccc(C(=O)Nc2ccncc2)cc1)C(=O)C1(c2ccc(F)c(Cl)c2)CC1` (centres undefined) is 500 to 5000 nM. In turn, `NC(CNC(=O)c1ccc(Cl)cc1)c1ccc(C(=O)Nc2ccncc2)cc1` (centres undefined) came in with an IC50 of 500 to 5000 nM. As to `Nc1c(C(=O)NCC(N)c2ccc(C(=O)Nc3ccncc3)cc2)cnn1-c1ccc(F)cc1` (centres undefined), the IC50 lay in the range of 500 to 5000 nM.

The molecule `NC(CNC(=O)Cc1ccc(F)cc1)c1ccc(C(=O)Nc2ccncc2)cc1` (centres undefined) gave an IC50 of 50 to 500 nM. With `COc1ccc(C2(C(=O)N3CCCC3C(N)c3ccc(C(=O)Nc4ccncc4)cc3)CCCC2)cc1` (centres undefined), the IC50 was in the range of 500 to 5000 nM. As for `Cc1ccc(C(=O)NCC(N)c2ccc(C(=O)Nc3ccncc3)cc2)cc1` (centres undefined), the IC50 was in the range of 500 to 5000 nM. The figure for `NC(CNC(=O)C1(c2ccc(Cl)cc2)CC1)c1ccc(C(=O)Nc2ccncc2)cc1` (centres undefined) is 50 to 500 nM; for `COc1ccc(CC(=O)N2CCCC2C(N)c2ccc(C(=O)Nc3ccncc3)cc2)cc1F` (centres undefined) it is 500 to 5000 nM. Regarding `CC(C)(C(=O)NCC(N)c1ccc(C(=O)Nc2ccncc2)cc1)c1ccc(Cl)cc1F` (centres undefined), the IC50 was in the range of 50 to 500 nM. On to `NC(c1ccc(C(=O)Nc2ccncc2)cc1)C1CCCN1C(=O)C1(c2ccc(F)c(F)c2)CC1` (centres undefined), for which the IC50 lay in the range of 500 to 5000 nM. Take `COc1ccc(CC(=O)N(C)CC(N)c2ccc(C(=O)Nc3ccncc3)cc2)c(OC)c1OC` (centres undefined): the IC50 was 5000 to 50000 nM.

Molecule `CN(CC(N)c1ccc(C(=O)Nc2ccncc2)cc1)C(=O)Cc1cc(F)ccc1F` (centres undefined) returned an IC50 of 500 to 5000 nM. `NC(c1ccc(C(=O)Nc2ccncc2)cc1)C1CCCN1C(=O)C1(c2ccc(F)cc2F)CC1` (centres undefined) returned an IC50 of 500 to 5000 nM. Consider `Cc1cccc(CC(=O)N2CCCC2C(N)c2ccc(C(=O)Nc3ccncc3)cc2)c1` (centres undefined), for which the IC50 was in the range of 500 to 5000 nM. In turn, `COc1ccccc1CC(=O)N(C)CC(N)c1ccc(C(=O)Nc2ccncc2)cc1` (centres undefined) came in with a half-maximal inhibitory concentration (IC50) of 500 to 5000 nM.

The molecule `NC(CNC(=O)CC1Cc2ccccc2C1)c1ccc(C(=O)Nc2ccncc2)cc1` (centres undefined) had an IC50 of 50 to 500 nM. `CCSCC(=O)NCC(N)c1ccc(C(=O)Nc2ccncc2)cc1` (centres undefined) gave an IC50 of 50 to 500 nM. Turning to `CN(CC(N)c1ccc(C(=O)Nc2ccncc2)cc1)C(=O)Cc1cccc(Br)c1` (centres undefined), the concentration for half-maximal inhibition (IC50) is 500 to 5000 nM. Molecule `NC(CC(=O)NCc1cc(Cl)ccc1Cl)c1ccc(C(=O)Nc2ccncc2)cc1` (centres undefined) gave a half-maximal inhibitory concentration (IC50) of 50 to 500 nM. `CCOCC(=O)NCC(N)c1ccc(C(=O)Nc2ccncc2)cc1` (centres undefined) had an IC50 of 500 to 5000 nM. Regarding `CC(C)(C(=O)NC[C@H](N)c1ccc(C(=O)Nc2ccncc2)cc1)c1ccc(Cl)cc1`, the IC50 lay within 500 to 5000 nM. The figure for `COc1cccc2cc(C(=O)NCC(N)c3ccc(C(=O)Nc4ccncc4)cc3)oc12` (centres undefined) is 50 to 500 nM. The figure for `NC(CC(=O)NCc1cc(Cl)cc(Cl)c1)c1ccc(C(=O)Nc2ccncc2)cc1` (centres undefined) is 50 to 500 nM.

Molecule `NC(CC(=O)NCCc1ccc(Cl)cc1Cl)c1ccc(C(=O)Nc2ccncc2)cc1` (centres undefined) displayed an IC50 of 50 to 500 nM. The molecule `COc1ccc(CNC(=O)CC(N)c2ccc(C(=O)Nc3ccncc3)cc2)c(OC)c1` (centres undefined) returned an IC50 of 50 to 500 nM. In turn, `NC(c1ccc(C(=O)Nc2ccncc2)cc1)C1CCCN1C(=O)C1CCOc2ccc(F)cc21` (centres undefined) showed an IC50 of 500 to 5000 nM.

`CN(Cc1ccccc1)C(=O)CC(N)c1ccc(C(=O)Nc2ccncc2)cc1` (centres undefined): the IC50 lay in the range of 50 to 500 nM. The molecule `NC(CNC(=O)CC1CCCC1)c1ccc(C(=O)Nc2ccncc2)cc1` (centres undefined) showed an IC50 of 500 to 5000 nM. The figure for `NC(CNC(=O)CC1CCCCC1)c1ccc(C(=O)Nc2ccncc2)cc1` (centres undefined) is 500 to 5000 nM; for `NC(c1ccc(C(=O)Nc2ccncc2)cc1)C1CCCN1C(=O)Cc1ccc(Cl)cc1` (centres undefined) it is 500 to 5000 nM; for `CC(C)(C(=O)NCC(N)c1ccc(C(=O)Nc2ccncc2)cc1)c1ccc(F)cc1F` (centres undefined) it is 50 to 500 nM.

For the molecule `NC(CNC(=O)Cc1ccncc1)c1ccc(C(=O)Nc2ccncc2)cc1` (centres undefined), the IC50 was in the range of 500 to 5000 nM.

As to `CN(CC(N)c1ccc(C(=O)Nc2ccncc2)cc1)C(=O)C1CCOc2ccc(F)cc21` (centres undefined), the half-maximal inhibitory concentration (IC50) was in the range of 500 to 5000 nM. The figure for `COc1ccc(OC)c(CCNC(=O)CC(N)c2ccc(C(=O)Nc3ccncc3)cc2)c1` (centres undefined) is 50 to 500 nM; for `CN(CC(N)c1ccc(C(=O)Nc2ccncc2)cc1)C(=O)C1(c2ccc(F)c(F)c2)CCCC1` (centres undefined) it is 500 to 5000 nM. `NC(c1ccc(C(=O)Nc2ccncc2)cc1)C1CCCN1C(=O)C1(c2ccc(F)c(F)c2)CCC1` (centres undefined) showed an IC50 of 500 to 5000 nM.

On to `CC(C)=NOC(C)C(=O)NCC(N)c1ccc(C(=O)Nc2ccncc2)cc1` (centres undefined), for which the IC50 was 500 to 5000 nM. In turn, `Cc1ccc(CCNC(=O)CC(N)c2ccc(C(=O)Nc3ccncc3)cc2)cc1` (centres undefined) showed a half-inhibitory concentration (IC50) of 50 to 500 nM. The result for `NC(CC(=O)NCc1cccc(OC(F)(F)F)c1)c1ccc(C(=O)Nc2ccncc2)cc1` (centres undefined) reads 50 to 500 nM. Molecule `Cc1ccc(CN2CCC(NC(=O)CC(N)c3ccc(C(=O)Nc4ccncc4)cc3)CC2)s1` (centres undefined) showed an IC50 of 50 to 500 nM. The figure for `CC(C)(C(=O)N1CCCC1C(N)c1ccc(C(=O)Nc2ccncc2)cc1)c1ccc(F)cc1` (centres undefined) is 500 to 5000 nM.

In turn, `NC(c1ccc(C(=O)Nc2ccncc2)cc1)C1CCCN1C(=O)C1(c2ccsc2)CC1` (centres undefined) displayed a concentration for half-maximal inhibition (IC50) of 500 to 5000 nM.

In turn, `NC(CNC(=O)C1CCCCC1)c1ccc(C(=O)Nc2ccncc2)cc1` (centres undefined) had an IC50 of 500 to 5000 nM. The figure for `Cc1ccc(C(=O)NCC(N)c2ccc(C(=O)Nc3ccncc3)cc2)s1` (centres undefined) is 500 to 5000 nM.

Take `CC(CNC(=O)CC(N)c1ccc(C(=O)Nc2ccncc2)cc1)c1ccc(Cl)cc1` (centres undefined): the IC50 lay within 50 to 500 nM. `NC(CC(=O)NCc1ccc(C(F)(F)F)c(F)c1)c1ccc(C(=O)Nc2ccncc2)cc1` (centres undefined) gave an IC50 of 50 to 500 nM.

Molecule `COc1ccccc1C(=O)NCC(N)c1ccc(C(=O)Nc2ccncc2)cc1` (centres undefined) registered an IC50 of 500 to 5000 nM.

For `NC(CNC(=O)Nc1ccccc1F)c1ccc(C(=O)Nc2ccncc2)cc1` (centres undefined), the IC50 lay in the range of 50 to 500 nM. The result for `N#CCC(=O)NCC(N)c1ccc(C(=O)Nc2ccncc2)cc1` (centres undefined) reads 50 to 500 nM; that for `COc1ccc2c(c1)CCCC2C(=O)NCC(N)c1ccc(C(=O)Nc2ccncc2)cc1` (centres undefined), 50 to 500 nM. The figure for `NC(CNC(=S)Nc1ccc(OC(F)(F)F)cc1)c1ccc(C(=O)Nc2ccncc2)cc1` (centres undefined) is 500 to 5000 nM; for `CC(C)C(C(=O)N1CCCC1C(N)c1ccc(C(=O)Nc2ccncc2)cc1)c1ccc(Cl)cc1` (centres undefined) it is 500 to 5000 nM; for `CS(=O)(=O)NCCNC(=O)CC(N)c1ccc(C(=O)Nc2ccncc2)cc1` (centres undefined) it is 50 to 500 nM. The figure for `CONC(=O)CC(N)c1ccc(C(=O)Nc2ccncc2)cc1` (centres undefined) is 50 to 500 nM.

Consider `Cc1cc(Cl)cc(Cl)c1CNC(=O)CC(N)c1ccc(C(=O)Nc2ccncc2)cc1` (centres undefined), for which the IC50 lay in the range of 50 to 500 nM. The figure for `NC(CNC(=O)c1ccc(F)cc1)c1ccc(C(=O)Nc2ccncc2)cc1` (centres undefined) is 500 to 5000 nM. Molecule `NC(c1ccc(C(=O)Nc2ccncc2)cc1)C1CCCN1C(=O)C1CCCCc2ccc(F)cc21` (centres undefined) returned an IC50 of 5000 to 50000 nM. `CCC(Oc1ccccc1)C(=O)NCC(N)c1ccc(C(=O)Nc2ccncc2)cc1` (centres undefined) displayed an IC50 of 50 to 500 nM. As to `CN(CC(N)c1ccc(C(=O)Nc2ccncc2)cc1)C(=O)Cc1ccccc1F` (centres undefined), the IC50 fell in the range of 500 to 5000 nM.

For `NC(CNC(=O)c1cnnc2ccccc12)c1ccc(C(=O)Nc2ccncc2)cc1` (centres undefined), the IC50 fell in the range of 500 to 5000 nM. The result for `N[C@H](CC(=O)N[C@H]1COc2ccccc21)c1ccc(C(=O)Nc2ccncc2)cc1` reads 50 to 500 nM; that for `NC(c1ccc(C(=O)Nc2ccncc2)cc1)C1CCCN1C(=O)C1CCc2cc(F)ccc21` (centres undefined), 500 to 5000 nM; that for `CN(C)CCNC(=O)CC(N)c1ccc(C(=O)Nc2ccncc2)cc1` (centres undefined), 50 to 500 nM. In turn, `NC(CC(=O)NCCc1ccc(Oc2ccccc2)cc1)c1ccc(C(=O)Nc2ccncc2)cc1` (centres undefined) returned a concentration for half-maximal inhibition (IC50) of 50 to 500 nM. The figure for `NC(CNC(=O)c1ccc2cc[nH]c2c1)c1ccc(C(=O)Nc2ccncc2)cc1` (centres undefined) is 500 to 5000 nM.

In turn, `CC(C)C(C)NC(=O)CC(N)c1ccc(C(=O)Nc2ccncc2)cc1` (centres undefined) registered an IC50 of 50 to 500 nM. The figure for `CC[C@H](NC(=O)CC(N)c1ccc(C(=O)Nc2ccncc2)cc1)c1ccccc1` (some centres undefined) is 50 to 500 nM; for `CCN(CC)c1ccc(C(=O)NCC(N)c2ccc(C(=O)Nc3ccncc3)cc2)cc1` (centres undefined) it is 500 to 5000 nM; for `COc1cccc(CNC(=O)CC(N)c2ccc(C(=O)Nc3ccncc3)cc2)c1OC` (centres undefined) it is 50 to 500 nM. The result for `NC(CNC(=O)[C@H]1CCC(=O)N1)c1ccc(C(=O)Nc2ccncc2)cc1` (some centres undefined) reads 50 to 500 nM.

`COc1ccccc1CC(=O)NCC(N)c1ccc(C(=O)Nc2ccncc2)cc1` (centres undefined) displayed an IC50 of 500 to 5000 nM. The result for `NC(CC(=O)NCc1cccc(C(F)(F)F)c1)c1ccc(C(=O)Nc2ccncc2)cc1` (centres undefined) reads 50 to 500 nM. On to `CN(CCc1ccccc1)C(=O)CC(N)c1ccc(C(=O)Nc2ccncc2)cc1` (centres undefined), for which the IC50 lay in the range of 50 to 500 nM. The result for `CC1=C(C(=O)NCC(N)c2ccc(C(=O)Nc3ccncc3)cc2)Cc2ccccc21` (centres undefined) reads 500 to 5000 nM.

Consider `COc1ccc(CC(=O)N(C)CC(N)c2ccc(C(=O)Nc3ccncc3)cc2)cc1` (centres undefined), for which the IC50 was 50 to 500 nM. The figure for `NC(CNC(=O)Nc1ccc(-c2ccccc2)cc1)c1ccc(C(=O)Nc2ccncc2)cc1` (centres undefined) is 500 to 5000 nM. Consider `CC(C)(C)c1ccc(NC(=S)NCC(N)c2ccc(C(=O)Nc3ccncc3)cc2)cc1` (centres undefined), for which the IC50 is 500 to 5000 nM.

The values are drawn from the Kinase Knowledgebase extract (Sharma et al. 2016).
